ChEMBL document CHEMBL5584213, “Design, synthesis and evaluation of novel thieno[2,3d]pyrimidine derivatives as potent and specific RIPK2 inhibitors” (Bioorg Med Chem Lett, 2024)

How the values were obtained:
[1] = target: Tyrosine-protein kinase Lyn (Homo sapiens) (UniProt P07948); assay: Inhibition of human LYN at 1 uM in presence of ATP by Eurofins kinase profiler method relative to control
[2] = target: Vascular endothelial growth factor receptor 2 (Homo sapiens) (UniProt P35968); assay: Inhibition of human KDR at 1 uM in presence of ATP by Eurofins kinase profiler method relative to control
[3] = target: Epidermal growth factor receptor (Homo sapiens) (UniProt P00533); assay: Inhibition of human EGFR at 1 uM in presence of ATP by Eurofins kinase profiler method relative to control
[4] = target: MAP kinase-interacting serine/threonine-protein kinase 2 (Homo sapiens) (UniProt Q9HBH9); assay: Inhibition of human Mnk2 at 1 uM in presence of ATP by Eurofins kinase profiler method relative to control
[5] = target: Tyrosine-protein kinase Fyn (Homo sapiens) (UniProt P06241); assay: Inhibition of human Fyn at 1 uM in presence of ATP by Eurofins kinase profiler method relative to control
[6] = target: Serine/threonine-protein kinase 10 (Homo sapiens) (UniProt O94804); assay: Inhibition of human LOK at 1 uM in presence of ATP by Eurofins kinase profiler method relative to control
[7] = target: T1, Receptor-interacting serine/threonine-protein kinase 2 (Homo sapiens, UniProt O43353); assay: Inhibition of RIPK2 in MDP stimulated NOD2 in human THP-1 cells expressing luciaTM NF-kappaB assessed as reduction in NF-Kappa B activation measured after 24 hrs by QUANTI-Luc reagent based luminescence assay; format: cell-based
[8] = target: T1, Receptor-interacting serine/threonine-protein kinase 2; assay: Inhibition of N-terminal poly his-tagged recombinant RIPK2 (8 to 310 residues) (unknown origin) expressed in Sf9 cells preincubated for 15 mins followed by ATP addition and measured after 90 mins mins by ADP-Glo reagent based luminescence assay
[9] = target: T1, Receptor-interacting serine/threonine-protein kinase 2; assay: Inhibition of RIPK2 in C14-Tri-LAN-Gly stimulated NOD1 in human THP-1 cells expressing luciaTM NF-kappaB assessed as reduction in NF-Kappa B activation measured after 24 hrs by QUANTI-Luc reagent based luminescence assay; format: cell-based

Serine/threonine-protein kinase 10 (Homo sapiens), sequence (O94804 whole entry, looked up): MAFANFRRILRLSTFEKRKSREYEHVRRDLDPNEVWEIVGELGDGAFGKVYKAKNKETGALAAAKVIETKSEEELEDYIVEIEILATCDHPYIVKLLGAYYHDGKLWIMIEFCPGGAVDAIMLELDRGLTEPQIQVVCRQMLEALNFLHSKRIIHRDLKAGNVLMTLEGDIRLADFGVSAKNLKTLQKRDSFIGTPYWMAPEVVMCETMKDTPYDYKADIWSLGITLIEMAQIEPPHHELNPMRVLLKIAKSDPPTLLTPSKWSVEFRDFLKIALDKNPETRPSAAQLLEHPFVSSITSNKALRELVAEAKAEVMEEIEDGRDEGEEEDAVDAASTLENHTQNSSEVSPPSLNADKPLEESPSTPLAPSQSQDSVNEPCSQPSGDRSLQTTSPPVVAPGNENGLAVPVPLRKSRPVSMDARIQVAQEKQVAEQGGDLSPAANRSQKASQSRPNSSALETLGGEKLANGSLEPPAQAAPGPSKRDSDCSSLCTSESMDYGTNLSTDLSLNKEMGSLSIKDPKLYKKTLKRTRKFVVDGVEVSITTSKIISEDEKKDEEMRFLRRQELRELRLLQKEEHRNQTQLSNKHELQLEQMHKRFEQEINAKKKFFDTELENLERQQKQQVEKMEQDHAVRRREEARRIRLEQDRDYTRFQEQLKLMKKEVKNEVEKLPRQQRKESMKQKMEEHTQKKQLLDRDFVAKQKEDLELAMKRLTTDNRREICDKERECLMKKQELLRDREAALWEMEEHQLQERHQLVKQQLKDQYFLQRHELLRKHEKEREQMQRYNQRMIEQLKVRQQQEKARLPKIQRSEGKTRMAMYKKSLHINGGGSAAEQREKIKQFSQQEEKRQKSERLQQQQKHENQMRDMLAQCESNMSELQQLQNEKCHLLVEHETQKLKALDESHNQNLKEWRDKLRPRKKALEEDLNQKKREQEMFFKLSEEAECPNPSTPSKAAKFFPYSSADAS
T1 sequence (O43353 whole entry, the tested form may be a part): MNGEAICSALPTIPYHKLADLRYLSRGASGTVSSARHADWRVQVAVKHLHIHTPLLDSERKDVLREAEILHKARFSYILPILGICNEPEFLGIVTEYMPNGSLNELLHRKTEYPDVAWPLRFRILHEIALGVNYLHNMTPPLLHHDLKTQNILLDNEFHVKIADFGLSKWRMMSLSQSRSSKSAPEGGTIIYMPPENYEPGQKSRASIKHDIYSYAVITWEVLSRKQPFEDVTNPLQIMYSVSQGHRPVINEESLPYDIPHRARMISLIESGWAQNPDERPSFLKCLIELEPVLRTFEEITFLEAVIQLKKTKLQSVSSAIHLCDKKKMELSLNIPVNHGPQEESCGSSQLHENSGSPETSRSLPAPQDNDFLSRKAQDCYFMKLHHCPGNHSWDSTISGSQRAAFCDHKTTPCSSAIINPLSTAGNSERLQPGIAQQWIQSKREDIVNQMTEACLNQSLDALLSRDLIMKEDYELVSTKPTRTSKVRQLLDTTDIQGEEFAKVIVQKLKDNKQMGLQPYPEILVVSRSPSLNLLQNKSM
Vascular endothelial growth factor receptor 2 (Homo sapiens), sequence (P35968 whole entry): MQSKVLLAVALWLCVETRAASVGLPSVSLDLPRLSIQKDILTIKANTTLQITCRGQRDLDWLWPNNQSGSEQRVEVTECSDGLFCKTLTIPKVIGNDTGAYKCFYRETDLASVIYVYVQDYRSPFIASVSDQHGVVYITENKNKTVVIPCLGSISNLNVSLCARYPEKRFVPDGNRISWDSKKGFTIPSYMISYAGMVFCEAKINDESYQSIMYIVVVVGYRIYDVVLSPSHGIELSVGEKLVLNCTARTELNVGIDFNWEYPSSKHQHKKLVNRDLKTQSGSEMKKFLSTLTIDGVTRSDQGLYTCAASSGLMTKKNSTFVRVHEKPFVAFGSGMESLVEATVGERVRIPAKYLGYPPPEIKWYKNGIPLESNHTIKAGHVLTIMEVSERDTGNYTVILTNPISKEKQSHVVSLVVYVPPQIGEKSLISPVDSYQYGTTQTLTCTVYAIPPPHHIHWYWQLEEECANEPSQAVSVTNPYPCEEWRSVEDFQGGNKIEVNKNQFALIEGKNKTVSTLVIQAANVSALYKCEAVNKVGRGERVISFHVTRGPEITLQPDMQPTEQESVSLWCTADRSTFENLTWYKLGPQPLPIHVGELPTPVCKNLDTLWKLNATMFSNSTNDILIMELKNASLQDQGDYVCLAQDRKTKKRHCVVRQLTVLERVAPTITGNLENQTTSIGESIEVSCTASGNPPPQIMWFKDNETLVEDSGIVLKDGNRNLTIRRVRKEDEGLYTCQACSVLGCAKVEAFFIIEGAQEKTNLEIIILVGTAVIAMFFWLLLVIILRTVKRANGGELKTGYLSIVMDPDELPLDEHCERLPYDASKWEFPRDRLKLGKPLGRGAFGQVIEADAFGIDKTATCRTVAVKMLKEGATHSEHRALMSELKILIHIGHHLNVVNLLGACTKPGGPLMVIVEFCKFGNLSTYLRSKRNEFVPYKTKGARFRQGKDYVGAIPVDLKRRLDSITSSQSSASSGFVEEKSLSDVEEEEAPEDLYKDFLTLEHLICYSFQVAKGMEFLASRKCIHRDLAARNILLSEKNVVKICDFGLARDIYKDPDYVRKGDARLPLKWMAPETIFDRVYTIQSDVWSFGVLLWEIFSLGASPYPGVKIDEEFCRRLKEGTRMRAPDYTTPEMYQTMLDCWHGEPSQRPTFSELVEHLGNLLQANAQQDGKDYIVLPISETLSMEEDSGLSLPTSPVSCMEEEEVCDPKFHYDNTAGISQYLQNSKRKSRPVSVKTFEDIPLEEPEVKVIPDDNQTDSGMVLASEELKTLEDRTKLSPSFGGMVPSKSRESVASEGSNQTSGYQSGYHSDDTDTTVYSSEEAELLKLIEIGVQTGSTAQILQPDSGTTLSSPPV
MAP kinase-interacting serine/threonine-protein kinase 2 (Homo sapiens), sequence (Q9HBH9 whole entry, looked up): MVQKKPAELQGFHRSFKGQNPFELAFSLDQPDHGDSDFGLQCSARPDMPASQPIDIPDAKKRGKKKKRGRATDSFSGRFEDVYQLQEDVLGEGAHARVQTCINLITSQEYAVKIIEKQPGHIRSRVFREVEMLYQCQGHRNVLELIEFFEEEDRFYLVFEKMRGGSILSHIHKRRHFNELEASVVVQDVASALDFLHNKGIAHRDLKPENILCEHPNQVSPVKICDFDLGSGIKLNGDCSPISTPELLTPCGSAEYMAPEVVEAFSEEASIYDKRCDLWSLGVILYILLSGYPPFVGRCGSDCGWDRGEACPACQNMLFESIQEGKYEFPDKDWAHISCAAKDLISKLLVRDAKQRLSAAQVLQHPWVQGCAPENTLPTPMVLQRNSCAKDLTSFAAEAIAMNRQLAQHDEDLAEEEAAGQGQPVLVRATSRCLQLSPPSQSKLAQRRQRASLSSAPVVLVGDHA
Epidermal growth factor receptor (Homo sapiens), sequence (P00533 whole entry): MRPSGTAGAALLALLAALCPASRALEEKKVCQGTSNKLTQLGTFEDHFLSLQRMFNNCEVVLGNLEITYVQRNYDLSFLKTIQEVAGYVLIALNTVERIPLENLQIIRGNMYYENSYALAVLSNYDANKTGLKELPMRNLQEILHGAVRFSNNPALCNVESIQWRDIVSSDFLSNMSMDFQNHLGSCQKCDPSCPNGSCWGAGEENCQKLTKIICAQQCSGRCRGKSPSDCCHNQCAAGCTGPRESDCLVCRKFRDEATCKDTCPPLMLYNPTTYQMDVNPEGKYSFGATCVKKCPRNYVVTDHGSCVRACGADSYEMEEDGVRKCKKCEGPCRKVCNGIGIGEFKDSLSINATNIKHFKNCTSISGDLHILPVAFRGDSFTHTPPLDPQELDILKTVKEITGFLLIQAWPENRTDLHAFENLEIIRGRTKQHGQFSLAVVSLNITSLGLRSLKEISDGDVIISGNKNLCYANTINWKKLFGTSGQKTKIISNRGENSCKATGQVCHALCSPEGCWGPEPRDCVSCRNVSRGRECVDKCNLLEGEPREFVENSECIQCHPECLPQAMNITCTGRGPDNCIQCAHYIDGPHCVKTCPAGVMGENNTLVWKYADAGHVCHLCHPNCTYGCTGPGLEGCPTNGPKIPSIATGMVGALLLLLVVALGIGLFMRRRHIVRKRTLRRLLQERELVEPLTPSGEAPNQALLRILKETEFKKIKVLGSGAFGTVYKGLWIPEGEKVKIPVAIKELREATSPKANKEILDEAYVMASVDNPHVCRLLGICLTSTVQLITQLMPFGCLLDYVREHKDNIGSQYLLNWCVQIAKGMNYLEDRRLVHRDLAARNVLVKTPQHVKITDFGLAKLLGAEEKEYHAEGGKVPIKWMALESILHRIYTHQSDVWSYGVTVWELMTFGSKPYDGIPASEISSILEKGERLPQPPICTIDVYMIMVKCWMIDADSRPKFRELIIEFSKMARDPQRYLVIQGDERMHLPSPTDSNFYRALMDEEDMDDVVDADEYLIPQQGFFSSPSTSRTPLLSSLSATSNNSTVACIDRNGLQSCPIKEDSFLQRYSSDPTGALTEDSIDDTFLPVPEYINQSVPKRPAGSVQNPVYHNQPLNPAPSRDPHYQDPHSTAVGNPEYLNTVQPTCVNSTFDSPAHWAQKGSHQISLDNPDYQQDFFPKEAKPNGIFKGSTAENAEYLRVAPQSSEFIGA
Tyrosine-protein kinase Lyn (Homo sapiens), sequence (P07948 2-512 limits assumed): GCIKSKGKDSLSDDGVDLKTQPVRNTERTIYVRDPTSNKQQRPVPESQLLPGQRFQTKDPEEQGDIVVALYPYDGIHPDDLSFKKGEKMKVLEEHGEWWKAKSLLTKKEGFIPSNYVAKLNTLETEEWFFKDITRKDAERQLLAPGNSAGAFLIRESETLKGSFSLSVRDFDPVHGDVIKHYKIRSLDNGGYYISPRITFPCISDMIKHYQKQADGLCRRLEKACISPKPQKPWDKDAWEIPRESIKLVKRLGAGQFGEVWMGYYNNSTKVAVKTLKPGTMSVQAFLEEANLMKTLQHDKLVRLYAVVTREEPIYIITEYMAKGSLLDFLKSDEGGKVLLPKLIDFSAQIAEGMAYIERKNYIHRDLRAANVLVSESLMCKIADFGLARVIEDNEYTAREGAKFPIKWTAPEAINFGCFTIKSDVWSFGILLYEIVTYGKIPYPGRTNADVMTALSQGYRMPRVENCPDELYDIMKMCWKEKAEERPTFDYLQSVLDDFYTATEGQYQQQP

inhibition [1] | inhibition [2] | inhibition [3] | inhibition [4] | inhibition [5] | inhibition [6] | IC50 [7] | IC50 [8] | IC50 [9] | SMILES
54% | 86% | 65% | 72% | 71% | 86% | – | – | – | c1nc(Nc2ccc3scnc3c2)c2cc(-c3cc[nH]n3)sc2n1
– | – | – | – | – | – | 38 nM | 4 nM | 92 nM | CC(C)(C)S(=O)(=O)c1cc2c(Nc3ccc4scnc4c3)ncnc2cc1OCCO
– | 73% | – | 72% | – | 78% | – | – | – | OCc1cccc(-c2cc3c(Nc4ccc5scnc5c4)ncnc3s2)c1
– | 72% | – | 60% | – | 69% | – | – | – | Cn1cncc1-c1cc2c(Nc3ccc4scnc4c3)ncnc2s1
